Measurements as given in patent US11141413B2, “Method of treating renal cell carcinoma using N-(4-(6,7-dimethoxyquinolin-4-yloxy)phenyl)-N′-(4-fluorophenyl)cyclopropane-1,1-dicarboxamide, (2S)-hydroxybutanedioate” (Exelixis, Inc., priority 2016, dated 2021).

Legend:
female rats = experiment: 14-day general toxicology study in female rats; assay type: in vivo, rat; settings: 5 mg/kg/day for 14 days
juvenile rats = experiment: Juvenile rat toxicity study; assay type: in vivo
Description: […]. Mortalities occurred at doses equal and greater than 1 mg/kg/day (approximately 0.16 times the clinical dose of 60 mg/day based on body surface area).

QTc interval = settings: human, in vivo
KIT = KIT (Homo sapiens, UniProt P10721); experiment: In vitro biochemical and/or cellular kinase assays
KIT, sequence (P10721 26-976): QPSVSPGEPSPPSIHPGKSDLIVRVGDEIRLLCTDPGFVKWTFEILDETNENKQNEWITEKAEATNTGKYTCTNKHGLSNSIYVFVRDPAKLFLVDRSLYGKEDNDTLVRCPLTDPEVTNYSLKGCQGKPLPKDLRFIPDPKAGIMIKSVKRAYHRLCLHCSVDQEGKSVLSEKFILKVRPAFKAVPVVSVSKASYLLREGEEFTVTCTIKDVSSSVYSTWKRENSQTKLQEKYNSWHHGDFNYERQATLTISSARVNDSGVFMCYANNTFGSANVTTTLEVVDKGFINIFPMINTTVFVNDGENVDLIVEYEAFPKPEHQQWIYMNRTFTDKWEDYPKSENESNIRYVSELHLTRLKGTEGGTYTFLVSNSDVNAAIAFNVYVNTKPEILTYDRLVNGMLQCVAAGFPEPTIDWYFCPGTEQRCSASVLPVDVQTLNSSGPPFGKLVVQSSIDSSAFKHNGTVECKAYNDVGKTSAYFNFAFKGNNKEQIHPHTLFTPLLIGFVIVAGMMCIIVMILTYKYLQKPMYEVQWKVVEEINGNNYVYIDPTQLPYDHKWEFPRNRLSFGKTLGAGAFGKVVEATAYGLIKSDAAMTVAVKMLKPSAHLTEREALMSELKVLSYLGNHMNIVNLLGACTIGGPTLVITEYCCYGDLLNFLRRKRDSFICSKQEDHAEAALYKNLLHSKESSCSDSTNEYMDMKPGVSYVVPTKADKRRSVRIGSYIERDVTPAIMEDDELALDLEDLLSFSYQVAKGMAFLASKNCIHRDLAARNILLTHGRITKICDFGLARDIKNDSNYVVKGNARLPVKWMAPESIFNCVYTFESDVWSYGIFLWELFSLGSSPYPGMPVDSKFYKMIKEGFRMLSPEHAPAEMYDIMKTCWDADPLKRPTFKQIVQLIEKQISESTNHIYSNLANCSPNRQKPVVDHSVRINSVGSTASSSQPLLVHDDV

human plasma = experiment: Plasma protein binding
[1] = Pharmacokinetics in patients with hepatic impairment; assay type: in vivo, human
Source text: Patients with severe hepatic impairment have not been studied.

CYP2C8 = CYP2C8 (Homo sapiens, UniProt P10632); experiment: Metabolic pathways in vitro: effect of CYP inhibition on cabozantinib metabolite formation; assay type: in vitro ADME
CYP2C8, sequence (P10632 whole entry): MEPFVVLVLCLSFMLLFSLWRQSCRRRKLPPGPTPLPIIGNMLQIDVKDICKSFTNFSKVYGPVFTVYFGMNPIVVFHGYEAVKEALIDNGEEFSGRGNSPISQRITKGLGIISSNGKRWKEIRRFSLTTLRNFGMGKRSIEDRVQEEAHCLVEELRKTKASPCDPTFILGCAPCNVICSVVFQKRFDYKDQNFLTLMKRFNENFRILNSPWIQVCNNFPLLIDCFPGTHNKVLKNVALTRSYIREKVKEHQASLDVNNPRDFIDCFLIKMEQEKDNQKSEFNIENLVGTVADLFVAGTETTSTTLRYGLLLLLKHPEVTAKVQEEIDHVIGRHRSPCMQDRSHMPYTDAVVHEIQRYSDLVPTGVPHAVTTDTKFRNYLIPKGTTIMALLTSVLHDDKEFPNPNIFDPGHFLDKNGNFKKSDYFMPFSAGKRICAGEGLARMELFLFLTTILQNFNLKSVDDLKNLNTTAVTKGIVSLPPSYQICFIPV

CYP3A4 = CYP3A4 (Homo sapiens, UniProt P08684); experiment: as above; assay type: in vitro ADME
CYP3A4, sequence (P08684 whole entry): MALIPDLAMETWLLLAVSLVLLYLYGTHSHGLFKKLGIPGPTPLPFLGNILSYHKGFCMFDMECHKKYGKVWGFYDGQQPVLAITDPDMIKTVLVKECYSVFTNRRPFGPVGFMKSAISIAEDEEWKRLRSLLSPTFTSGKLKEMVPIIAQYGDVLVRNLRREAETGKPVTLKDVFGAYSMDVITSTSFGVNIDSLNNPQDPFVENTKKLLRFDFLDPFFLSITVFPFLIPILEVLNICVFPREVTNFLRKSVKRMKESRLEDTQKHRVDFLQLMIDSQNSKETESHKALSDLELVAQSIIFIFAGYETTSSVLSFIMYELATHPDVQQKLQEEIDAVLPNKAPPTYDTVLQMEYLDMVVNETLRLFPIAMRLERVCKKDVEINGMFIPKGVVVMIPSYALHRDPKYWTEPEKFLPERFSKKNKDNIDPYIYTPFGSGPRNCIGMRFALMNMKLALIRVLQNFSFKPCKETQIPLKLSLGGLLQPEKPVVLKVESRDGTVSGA

mouse = experiment: In vivo mouse micronucleus assay
patients = experiment: Cabozantinib clinical program: serious events and overdosage case; assay type: in vivo, human
bacteria = experiment: Bacterial reverse mutation (Ames) assay; settings: in vitro
male and female rats = settings: rat, in vivo
[2] = test system: renal cell carcinoma (RCC) patients; experiment: Exposure-response (ER) Cox proportional hazard model of progression-free survival; settings: time-varying average daily cabozantinib concentration

In the case of `COc1cc2nccc(Oc3ccc(NC(=O)C4(C(=O)Nc5ccc(F)cc5)CC4)cc3)c2cc1OC` [cabozantinib], the Ovarian finding (female rats) is reported as “exhibited ovarian necrosis”, the “Mortality dose as multiple of the clinical dose of 60 mg/day based on body surface area” value (juvenile rats; 1 mg/kg/day) is reported as “approximately 0.16 times” and the “Doses at which mortalities occurred” value (juvenile rats; Postnatal Day 12 through 35 or 70) is reported as at least 1 mg/kg/day. For the same molecule, the “Changes in cardiac wave form morphology or new rhythms” value (QTc interval) was “not observed”, the “Inhibition of tyrosine kinase activity” value (KIT) was “inhibits” and the “Protein bound in human plasma” value (human plasma) was at least 99.7%. The “Exposure in patients with mild to moderate hepatic impairment” value ([1]; human, in vivo) was “Increased exposure”, the “Increase in exposure (AUC0-inf)” value ([1]; mild (C-P A) hepatic impairment) was 81% and the “Increase in exposure (AUC0-inf)” value ([1]; moderate (C-P B) hepatic impairment) was 63%. The “Effect of inhibition of CYP2C8 on cabozantinib metabolite formation” value (CYP2C8) was “no effect”, the “CYP3A4 substrate status in vitro” value (CYP3A4) was “substrate” and the Clastogenicity (mouse) was “not clastogenic”. For the same molecule, the Fatal hemorrhages (patients; human, in vivo) was “Fatal hemorrhages also occurred”, the Fatal perforations (patients; human, in vivo) was “Fatal perforations occurred” and the Fatal thrombotic events (patients; human, in vivo) was “Fatal thrombotic events occurred”. For the same molecule, the “Reversible Posterior Leukoencephalopathy Syndrome (RPLS)” value (patients; human, in vivo) was “occurred”, the Overdosage case findings (patients; twice the intended dose (200 mg daily) of another formulation for nine days) was “Grade 3 memory impairment, Grade 3 mental status changes, Grade 3 cognitive disturbance, Grade 2 weight loss, and Grade 1 increase in BUN” and the Mutagenicity (bacteria) was “not mutagenic”. For the same molecule, the “Doses at which female fertility was significantly reduced” value (male and female rats; female) was at least 1 mg/kg/day, the “Doses at which male fertility was significantly compromised” value (male and female rats; male) was at least 2.5 mg/kg/day and the “EC50 of best Emax model for rate of PD or death” value [2] was 0.1 µg/mL.
